# Tests used:
# Septoria tritici = assay: Activity against leaf blotch on wheat caused by Septoria tritici (Septtr), microtest; assay type: cell-based; conditions: relative growth vs compound-free control (100%), 405 nm, 7 days after inoculation
# Phakopsora pachyrhizi = assay: Protective control of soy bean rust on soy beans (Phakpa P2), green house; assay type: in vivo, Phakopsora pachyrhizi on soy bean; conditions: 16 ppm spray, inoculated 2 days after treatment, % diseased leaf area, untreated control 80
SMILES,Growth (%) at 0.000125 ppm Septtr (Septoria tritici) [%],Disease (%) at 16 ppm Phakpa P2 (Phakopsora pachyrhizi) [%]
"CCC(Cn1cncn1)(OC)c1ccc(Oc2ccc(Cl)cc2)cc1Cl (stereo not shown) [U.S. Pat. No. 4,940,720]",53,60
COC(C)(Cn1cncn1)c1ccc(Oc2ccc(Cl)cc2)cc1Cl (stereo not shown) [EP 0126430],63,60
